Results reported in patent US20010051624A1, “Method and compositions for the treatment of allergic conditions using PGD2 receptor antagonists” (priority 2000, published 2001).

Tested on: ovalbumin-sensitized guinea pigs
Test: Guinea pig allergic rhinitis model: intranasal pressure after nasal ovalbumin challenge
Type: in vivo
Details: 60 minutes prior to ovalbumin 1% challenge, AUC 0-30 min
Method: Male Hartley guinea pigs (250-500 g) purchased from Charles River (St-Constant, Qc, Canada) were used. They were housed in a temperature and humidity controlled environment, in groups of four or five with food and water available ad libitum. Experimental procedures were approved by the Animal Care Committee at Merck Frosst Centre for Therapeutic Research, in accordance with the guidelines of the Canadian Council on Animal Care.
Sensitization: The animals were injected intraperitoneally with 0.5 ml of an ovalbumin solution (100 μg/ml) containing 100 mg/ml aluminum hydroxide in 0.9% saline. […]
Following the surgical preparation, gallamine (2 mg/kg, i.v.) was administered to suppress spontaneous breathing. […] The changes in the intranasal pressure were monitored through a pressure transducer (Validyne DP-45, membrane 6-26, Validyne Corp., Northridge, Calif.) connected to a side arm of the nasal cannula. Values were recorded every 5 seconds using a data acquisition system (Modular Instruments, Malvern, Pa.). […]
The effects of test compounds were evaluated on the increased intranasal pressure following a nasal challenge with an aerosol of ovalbumin 1% for 3 minutes. […] The changes in intranasal pressure were recorded for the 30 minutes following the nasal challenge, using the peak response. […]

| SMILES | effect on the increase in intranasal pressure induced by ovalbumin aerosol (mepyramine 5 mg/kg i.p. alone) | effect on the increase in intranasal pressure induced by ovalbumin aerosol (Compound I 1 mg/kg i.p. alone) |
| --- | --- | --- |
| COc1ccc(CN(CCN(C)C)c2ccccn2)cc1 [mepyramine] | no significant effect | – |
| C[S@+]([O-])c1cccc2c3c(n(Cc4ccc(Cl)cc4)c12)[C@@H](CC(=O)O)CCC3 [Compound I, 2-[(1R)-9-(4-chlorobenzyl)-8-((S)-methylsulfinyl)-2,3,4,9-tetrahydro-1H-carbazol-1-yl]acetic acid] | – | no significant effect |
